The text below walks through data of US20240270762A1, “PENICILLIN-BINDING PROTEIN INHIBITORS” (priority 2021, published 2024).

≈ marks a conversion by molar mass, not a printed value. Read-outs that look alike come from different tables or passages of the source.

The test system of assay [1] is A. baumannii ATCC 19606. In words: microbe, parasite or virus in culture. The conditions noted are these: Acinetobacter baumannii. The class given is cell-based.
In assay [2] the test system is P. aeruginosa CDC-0090. In words: microbe, parasite or virus in culture. The format is cell-based. The conditions noted are these: Pseudomonas aeruginosa, CDC0090, read-out: Minimum inhibitory concentration, P. aeruginosa CDC-0090.
For assay [3], the target named is T1, PBP3 from Pseudomonas aeruginosa (PAO1) (Pseudomonas aeruginosa, UniProt G3XD46).
T1 construct: made in house
The assay is described as follows: Bocillin-FL fluorescence polarization competition binding, P. aeruginosa PBP3. To be noted: Binding affinity to P. aeruginosa PBP3; fluorescence polarization competition binding assay using Bocillin-FL; read-out: P. aeruginosa PBP3 Potency. In a few lines: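 Purified PBPs pre-incubated with inhibitor (E. coli PBP3 1.5 μM, 30 min; P. aeruginosa PBP3 0.75 μM, A. baumannii PBP1a 1 μM and PBP3 0.2 μM, 15 min), then Bocillin-FL 0.1 μM (0.05 μM for PBP1a) added; FP read up to 60 min. EC50 = concentration halving bound Bocillin-FL.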

Assay [4] has as its target T2, A. baumannii PBP1a (Acinetobacter baumannii, UniProt A0ABX6CK30).
T2 sequence (A0ABX6CK30 1-851): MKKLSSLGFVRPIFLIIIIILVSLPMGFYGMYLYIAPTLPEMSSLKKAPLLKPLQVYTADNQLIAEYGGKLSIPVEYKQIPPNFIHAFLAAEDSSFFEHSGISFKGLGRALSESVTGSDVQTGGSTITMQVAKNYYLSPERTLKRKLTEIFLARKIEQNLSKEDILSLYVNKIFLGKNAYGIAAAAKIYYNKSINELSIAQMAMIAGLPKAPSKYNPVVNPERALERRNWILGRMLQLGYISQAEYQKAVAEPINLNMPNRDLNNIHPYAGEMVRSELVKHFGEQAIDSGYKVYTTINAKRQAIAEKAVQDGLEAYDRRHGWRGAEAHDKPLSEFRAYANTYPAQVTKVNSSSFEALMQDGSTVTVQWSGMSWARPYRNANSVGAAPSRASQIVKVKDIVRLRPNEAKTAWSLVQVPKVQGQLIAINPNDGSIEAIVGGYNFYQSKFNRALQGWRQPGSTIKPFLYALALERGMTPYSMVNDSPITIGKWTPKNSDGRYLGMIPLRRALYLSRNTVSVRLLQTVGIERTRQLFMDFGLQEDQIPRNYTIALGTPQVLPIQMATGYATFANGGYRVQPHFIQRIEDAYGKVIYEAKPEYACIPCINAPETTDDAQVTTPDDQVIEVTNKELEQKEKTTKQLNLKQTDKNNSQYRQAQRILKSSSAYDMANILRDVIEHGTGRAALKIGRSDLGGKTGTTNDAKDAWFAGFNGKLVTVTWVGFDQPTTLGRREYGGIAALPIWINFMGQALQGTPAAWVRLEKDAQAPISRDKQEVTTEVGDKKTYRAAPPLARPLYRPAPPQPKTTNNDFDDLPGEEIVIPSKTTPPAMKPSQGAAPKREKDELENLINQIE
In words: Bocillin-FL competition binding via gel filtration, A. baumannii PBP1a. In a few lines: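 Enzyme was pre-incubated with rising inhibitor concentrations, then Bocillin-FL was added and incubated 15 minutes more. Bound probe was separated by gel filtration and fluorescence read. EC50 came from fitting fraction of PBP labelled versus inhibitor concentration to a Hill equation with ymin, ymax and n.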

Where [5] appears, read: ATCC19606, read-out: MIC, A. baumannii ATCC 19606.
[6] abbreviates: competition binding assay using Bocillin-FL via gel filtration, read-out: A. baumannii PBP1a Potency.
Where [7] appears, read: ATCC19606, read-out: Minimum inhibitory concentration (MIC), A. baumannii ATCC 19606.

T1 sequence (G3XD46 whole entry): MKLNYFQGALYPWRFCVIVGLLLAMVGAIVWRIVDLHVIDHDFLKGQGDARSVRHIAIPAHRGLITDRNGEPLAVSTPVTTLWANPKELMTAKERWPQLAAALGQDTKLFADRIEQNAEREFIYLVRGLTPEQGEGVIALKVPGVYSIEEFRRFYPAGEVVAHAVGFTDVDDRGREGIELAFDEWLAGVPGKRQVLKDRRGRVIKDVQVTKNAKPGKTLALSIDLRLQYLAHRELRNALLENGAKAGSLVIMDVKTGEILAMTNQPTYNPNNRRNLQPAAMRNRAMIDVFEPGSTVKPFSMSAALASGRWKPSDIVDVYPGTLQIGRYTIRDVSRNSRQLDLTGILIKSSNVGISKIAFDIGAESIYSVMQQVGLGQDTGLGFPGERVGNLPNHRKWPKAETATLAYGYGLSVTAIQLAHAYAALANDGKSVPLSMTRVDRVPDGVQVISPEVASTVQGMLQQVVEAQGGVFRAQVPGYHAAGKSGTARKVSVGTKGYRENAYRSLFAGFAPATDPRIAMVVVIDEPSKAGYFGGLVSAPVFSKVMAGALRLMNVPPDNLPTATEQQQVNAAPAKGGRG

As to `O=C(O)c1c(F)ccc2c1OB(O)[C@@H](NC(=O)[C@H](NC(=O)N1CCN(C3CCN(C(=O)c4cc(O)cc(F)c4)CC3)C1=O)c1cc(F)c(O)c(O)c1Cl)C2` (single isomer, unassigned) [Example 436], the MIC in assay [1] (setting [5]) and in assay [2] was below 1 µg/mL each time. The IC50 in assay [3] is below 10 µM. Further, in assay [4] (setting [6]), the EC50 is below 10 µM.
For `O=C(O)c1c(F)ccc2c1OB(O)[C@@H](NC(=O)[C@H](NC(=O)N1CCN(C3CCN(C(=O)c4ccc(F)c(O)c4Cl)CC3)C1=O)c1cc(F)c(O)c(O)c1Cl)C2` [Example 438, (R)-3-((R)-2-(3-(1-(2-chloro-4-fluoro-3-hydroxybenzoyl)piperidin-4-yl)-2-oxoimidazolidine-1-carboxamido)-2-(2-chloro-5-fluoro-3,4-dihydroxyphenyl)acetamido)-7-fluoro-2-hydroxy-3,4-dihydro-2H-benzo[e][1,2]oxaborinine-8-carboxylic acid], the MIC was below 1 µg/mL in assay [1] (setting [5]) and 2 to 4 µg/mL (≈ 2.47 to 4.94 µM) in assay [2]. Also, in assay [3], the IC50 is below 10 µM. Further, in assay [4] (setting [6]), the EC50 was below 10 µM.
On to `O=C(O)c1c(F)ccc2c1OB(O)[C@@H](NC(=O)[C@H](NC(=O)N1CCN(C3CCN(C(=O)Nc4cc(F)c(O)c(O)c4Cl)CC3)C1=O)c1ccc(P(=O)(O)O)cc1)C2` (single isomer, unassigned) [Example 500], for which the MIC was below 1 µg/mL in assay [1] (setting [7]) and 2 to 4 µg/mL (≈ 2.39 to 4.78 µM) in assay [2]. In addition, the IC50 in assay [3] is below 10 µM. Besides, the EC50 in assay [4] (setting [6]) is below 10 µM.
Regarding `O=C(O)c1c(F)ccc2c1OB(O)[C@@H](NC(=O)C(NC(=O)N1CCN(C3CCN(S(=O)(=O)Cc4cccc(O)c4)CC3)C(=O)C1=O)c1cc(F)c(O)c(O)c1Cl)C2` (stereo partly drawn) [Example 485, (3R)-3-(2-(2-chloro-5-fluoro-3,4-dihydroxyphenyl)-2-(4-(1-((3-hydroxybenzyl)sulfonyl)piperidin-4-yl)-2,3-dioxopiperazine-1-carboxamido)acetamido)-7-fluoro-2-hydroxy-3,4-dihydro-2H-benzo[e][1,2]oxaborinine-8-carboxylic acid], the MIC in assay [1] (setting [5]) and in assay [2] was below 1 µg/mL in each case. For the same compound, the IC50 in assay [3] is below 10 µM. Also, the EC50 in assay [4] (setting [6]) is below 10 µM.
As for `O=C(O)c1c(F)ccc2c1OB(O)[C@@H](NC(=O)C(NC(=O)N1CCN(C3CCN(C(=O)Nc4cc(O)cc(F)c4)CC3)C(=O)C1=O)c1cc(F)c(O)c(O)c1Cl)C2` (stereo partly drawn) [Example 481, (3R)-3-(2-(2-chloro-5-fluoro-3,4-dihydroxyphenyl)-2-(4-(1-((3-fluoro-5-hydroxyphenyl)carbamoyl)piperidin-4-yl)-2,3-dioxopiperazine-1-carboxamido)acetamido)-7-fluoro-2-hydroxy-3,4-dihydro-2H-benzo[e][1,2]oxaborinine-8-carboxylic acid], the MIC in assay [1] (setting [5]) was below 1 µg/mL; in assay [2], 2 to 4 µg/mL (≈ 2.44 to 4.88 µM). In assay [3], the IC50 is below 10 µM. Besides, the EC50 in assay [4] (setting [6]) was below 10 µM.
As to `O=C(O)c1c(F)ccc2c1OB(O)[C@@H](NC(=O)[C@H](NC(=O)N1CCN(C3CCN(C(=O)c4cc(O)c(F)c(O)c4F)CC3)C1=O)c1cc(F)c(O)c(O)c1Cl)C2` (single isomer, unassigned) [Example 444], the MIC in assay [1] (setting [5]) and in assay [2] was below 1 µg/mL each time. Further, the IC50 in assay [3] was below 10 µM. For the same compound, the EC50 in assay [4] (setting [6]) was below 10 µM.
For `O=C(O)c1c(F)ccc2c1OB(O)[C@@H](NC(=O)[C@H](NC(=O)N1CCN(C3CCN(C(=O)c4cc(F)c(F)c(O)c4F)CC3)C1=O)c1cc(F)c(O)c(O)c1Cl)C2` (single isomer, unassigned) [Example 441], the MIC in assay [1] (setting [5]) and in assay [2] was below 1 µg/mL throughout. The IC50 in assay [3] was below 10 µM. For the same compound, in assay [4] (setting [6]), the EC50 is below 10 µM.
Consider `O=C(O)c1c(F)ccc2c1OB(O)[C@@H](NC(=O)[C@H](NC(=O)N1CCN(C3CCN(C(=O)c4cccnc4)CC3)C1=O)c1cc(F)c(O)c(O)c1Cl)C2` [Example 460, (R)-3-((R)-2-(2-chloro-5-fluoro-3,4-dihydroxyphenyl)-2-(3-(1-nicotinoylpiperidin-4-yl)-2-oxoimidazolidine-1-carboxamido)acetamido)-7-fluoro-2-hydroxy-3,4-dihydro-2H-benzo[e][1,2]oxaborinine-8-carboxylic acid], for which the MIC in assay [1] (setting [5]) and in assay [2] was below 1 µg/mL throughout. Besides, in assay [3], the IC50 is below 10 µM. Further, the EC50 in assay [4] was 10 to 50 µM.
With `O=C(O)c1c(F)ccc2c1OB(O)[C@@H](NC(=O)[C@H](NC(=O)N1CCN(Cc3ccc(O)c(O)c3Cl)C(=O)C1=O)c1cccc(P(=O)(O)O)c1)C2` (single isomer, unassigned) [Example 163], the MIC in assay [1] (setting [5]) was below 1 µg/mL; in assay [2], 2 to 4 µg/mL (≈ 2.72 to 5.44 µM). Also, the IC50 in assay [3] is below 10 µM. Also, the EC50 in assay [4] (setting [6]) is below 10 µM.
Turning to `O=C(O)c1c(F)ccc2c1OB(O)[C@@H](NC(=O)[C@H](NC(=O)N1CCN(C3CCN(C(=O)Nc4cccc(O)c4Cl)CC3)C(=O)C1=O)c1cc(F)c(O)c(O)c1Cl)C2` [Example 482, (R)-3-((R)-2-(4-(1-((2-chloro-3-hydroxyphenyl)carbamoyl)piperidin-4-yl)-2,3-dioxopiperazine-1-carboxamido)-2-(2-chloro-5-fluoro-3,4-dihydroxyphenyl)acetamido)-7-fluoro-2-hydroxy-3,4-dihydro-2H-benzo[e][1,2]oxaborinine-8-carboxylic acid], the MIC in assay [1] (setting [5]) is below 1 µg/mL; in assay [2] it was 2 to 4 µg/mL (≈ 2.39 to 4.79 µM). The IC50 in assay [3] was below 10 µM. Moreover, in assay [4] (setting [6]), the EC50 fell in the range of 10 to 50 µM.
In the same order, the values of `O=C(O)c1c(F)ccc2c1OB(O)[C@@H](NC(=O)[C@H](NC(=O)N1CCN(C3CCN(C(=O)c4c(F)ccc(O)c4F)CC3)C1=O)c1cc(F)c(O)c(O)c1Cl)C2` (single isomer, unassigned) [Example 439] are below 1 µg/mL, below 1 µg/mL, below 10 µM and 10 to 50 µM.
`O=C(NCCN1CCN(C(=O)N[C@@H](C(=O)N[C@H]2Cc3ccc(F)c(C(=O)O)c3OB2O)c2ccc(P(=O)(O)O)cc2)C(=O)C1=O)c1ccc(O)c(O)c1Cl` [Example 503, (R)-3-((R)-2-(4-(2-(2-chloro-3,4-dihydroxybenzamido)ethyl)-2,3-dioxopiperazine-1-carboxamido)-2-(4-phosphonophenyl)acetamido)-7-fluoro-2-hydroxy-3,4-dihydro-2H-benzo[e][1,2]oxaborinine-8-carboxylic acid]: the MIC in assay [1] (setting [7]) and in assay [2] was below 1 µg/mL each time. The IC50 in assay [3] is below 10 µM. In assay [4] (setting [6]), the EC50 was 10 to 50 µM.
In the case of `O=C(O)c1c(F)ccc2c1OB(O)[C@@H](NC(=O)C(NC(=O)N1CCN(C3CCN(C(=O)Nc4ccc(F)c(O)c4)CC3)C(=O)C1=O)c1cc(F)c(O)c(O)c1Cl)C2` (stereo partly drawn) [Example 480, (3R)-3-(2-(2-chloro-5-fluoro-3,4-dihydroxyphenyl)-2-(4-(1-((4-fluoro-3-hydroxyphenyl)carbamoyl)piperidin-4-yl)-2,3-dioxopiperazine-1-carboxamido)acetamido)-7-fluoro-2-hydroxy-3,4-dihydro-2H-benzo[e][1,2]oxaborinine-8-carboxylic acid], the MIC in assay [1] (setting [5]) was below 1 µg/mL; in assay [2], 2 to 4 µg/mL (≈ 2.44 to 4.88 µM). Moreover, the IC50 in assay [3] was below 10 µM. In addition, the EC50 in assay [4] (setting [6]) was below 10 µM.
Regarding `O=C(O)c1c(F)ccc2c1OB(O)[C@@H](NC(=O)[C@H](NC(=O)N1CCN(C3CCN(C(=O)c4cc(O)ccc4F)CC3)C1=O)c1cc(F)c(O)c(O)c1Cl)C2` (single isomer, unassigned) [Example 433], the MIC in assay [1] (setting [5]) and in assay [2] was below 1 µg/mL in each case. The IC50 in assay [3] is below 10 µM. Further, the EC50 in assay [4] (setting [6]) was below 10 µM.
On to `O=C(O)c1c(F)ccc2c1OB(O)[C@@H](NC(=O)[C@H](NC(=O)N1CCN(C3CCN(C(=O)Nc4ccc(F)c(O)c4)CC3)C1=O)c1cc(F)c(O)c(O)c1Cl)C2` (single isomer, unassigned) [Example 449], for which the MIC in assay [1] (setting [5]) and in assay [2] was below 1 µg/mL in each case. The IC50 in assay [3] is below 10 µM. Further, the EC50 in assay [4] (setting [6]) is below 10 µM.
